Experimental data: patent US8367328B2, “Method for synthesizing DNA” (Takara Bio Inc., priority 1998, dated 2013)

How the values were obtained:
[1] = tested on: Pfu DNA Polymerase I and Pfu DNA Polymerase II; assay: PCR with Pfu DNA Polymerase I plus Pfu DNA Polymerase II in the presence of acidic substances; format: biochemical, Pyrococcus furiosus; conditions: commercially available sodium alginate, 100 to 1000 centipoises; Example 12 conditions
Method: Using λDNA as a template, and each of primers λ1 and λ3, primers λ1 and λ4, or primers λ1 and λ5 as a primer pair, the reaction mixture having the following composition was prepared.
Composition of Reaction Mixture: 10 mM Tris-hydrochloric acid (pH 9.2), 75 mM potassium chloride, 6 mM magnesium chloride, 0.4 mM each of dATP, dCTP, dGTP and dTTP, 0.01% BSA, 1.25 U of Pfu DNA Polymerase I and 1.25 U of Pfu DNA Polymerase II, 500 pg of λDNA, and 5 pmol each of the primers, 5 ng or 50 ng of sulfated-fucose-containing polysaccharide-F (a final volume being 25 μl). In addition, as a control, one without addition of sulfated-fucose-containing polysaccharide-F was prepared.
The reaction in 30 cycles was carried out for each of these reaction mixtures, wherein one cycle of reaction comprises a process consisting of 98° C., 0 seconds—68° C., 0 seconds. Thereafter, 5 μl of the resulting reaction mixture was subjected to electrophoresis on 1% agarose gel containing ethidium bromide in an amount of 0.00005%, whereby an amplified fragment was confirmed.
PCR was carried out by using in combination Pfu DNA Polymerase II obtained in Example 1 and Pfu DNA Polymerase I (manufactured by Stratagene), which is α-type DNA polymerase, and sodium alginate, which is an acidic substance.
A reaction mixture comprising λDNA as a template, primers λ1 and λ3 as a primer pair was prepared, and PCR was carried out. […]

[2] = tested on: TaKaRa EX-Taq DNA Polymerase; assay: LA-PCR with TaKaRa EX-Taq DNA Polymerase in the presence of acidic substances; format: biochemical; conditions: 10 kb fragment
Method: (1) The effects of the acidic substances were studied on LA-PCR method comprising a combination of DNA polymerase having 3′→5′ exonuclease activity, and DNA polymerase having no such activity. A reaction mixture comprising λDNA as a template, primers λ1 and λ8 as a primer pair was prepared, and PCR was carried out. In this PCR, TaKaRa EX-Taq DNA Polymerase (manufactured by Takara Shuzo Co., Ltd.) was used. The composition of the reaction mixture is as follows.
In the following example, PCR was carried out in Fast mode by using TaKaRa PCR Thermal Cycler Personal (manufactured by Takara Shuzo Co., Ltd.).
[…] Further, 1 ng of the sulfated-fucose-containing polysaccharide-F or 0.5 μg of sodium alginate was respectively added to the above reaction mixture.
[…] After the termination of the reaction, 5 μl of the resulting reaction mixture was subjected to electrophoresis on 1% agarose gel containing ethidium bromide in an amount of 0.00005%, whereby an amplified fragment was confirmed.
Further, PCR was carried out for a reaction having the same composition as the above reaction mixture except for using 100 pg of λDNA as template DNA, and adding 0.25 μg of sodium alginate or 1 ng of the sulfated-fucose-containing polysaccharide-F as an acidic substance.
The reaction was carried out in 29 cycles, wherein one cycle of reaction comprises a process consisting of 98° C., 5 seconds—68° C., 3 minutes. […]

With sodium alginate the “Amplification efficiency for DNA synthesis, sodium alginate of each viscosity” value [1] was “completely the same improvements”, the “Amplification Results” value ([2]; template DNA 10 pg, primers λ1/λ8, 27 cycles 98°C 5 s–68°C 3 min, amount added 0.5 μg) was “++ (Intensive amplification being observed)” and the “Amplification Results” value ([2]; template DNA 100 pg, primers λ1/λ8, 29 cycles 98°C 5 s–68°C 3 min, amount added 0.25 μg) was “++ (Intensive amplification being observed)”.
